Each compound was assayed on PC-3 prostate breast cancer cells (assay: EDR assay, anti-proliferation against PC-3 cells (3H-thymidine incorporation in soft agar)). Settings: Homo sapiens, PC3 cell line, five days incubation, 3H-TdR incorporation.
Assay type: cell-based
Description: Compounds prepared according to Examples 1-7 were tested for anti-proliferation against PC-3 prostate […] cancer cells. Butyric acid and trichostatin, a potent HDAC inhibitor, were used as reference compounds. Both compounds were purchased from Sigma-Aldrich, Milwaukee, Wis.
The PC3 cell line was maintained in RPMI supplemented with 10% fetal calf serum and antibiotics. The EDR assay was performed as described by Kern and Weisenthal in “Highly Specific Prediction of Antineoplastic Drug Resistance With An In Vitro Assay Using Suprapharmacologic Drug Exposures,” J. Nat. Cancer Inst., 82:582-588 (1990); and Fruehauf and Bosanquet, “In vitro Determination of Drug Response: A Discussion of Clinical Applications,” PPO Updates 7(12):1-16 (1993). Cells were suspended in 0.12% soft agar in complete medium and plated (2,000 cells per well, as determined by preliminary experiments) in different drug concentrations onto a 0.4% agarose underlayer in 24-well plates. Plating cells on agarose underlayers supports the proliferation only of the transformed cells, ensuring that the growth signal stems from the malignant component of the tumor.
All compounds were dissolved in DMSO to 200× stock solutions. Stock solutions were diluted to 20× working solutions using the tissue culture medium, serially diluted and added to the 24-well plates. The concentration range was 0.001 μM to 0.3 μM for trichostatin and 10 μM-1,000 μM for the other compounds. No significant changes in pH of the culture medium were observed under the above conditions. Diluent control wells contained PC3 cells treated with DMSO, at the dilutions used for appropriate drug treatment. All experimental points were represented by two separate wells (duplicates). Positive controls were determined using at least two wells treated with an extremely high dose of cisplatin, an anti-cancer agent. Four wells containing tumor cells that were not treated with drugs served as negative controls in each experiment.
Cells were incubated with drugs under standard culture conditions for five days. Cultures were pulsed with tritiated thymidine (^3H-TdR, New Life Science Products, Boston, Mass.) at 5 μCi per well for the last 48 hours of the culture period. Cell culture plates were then heated to 90° C. to liquefy the agarose, and cells were harvested onto glass fiber filters, which were then placed into counting vials containing liquid scintillation fluid. The radioactivity trapped on the filters was counted with a Beckman scintillation counter. The fraction of surviving cells was determined by comparing ^3H-TdR incorporation in treated (experimental points) and untreated (negative control) wells. All drug concentrations are presented as μM, allowing for normalization of drug response curves and direct comparison of the effects of the drugs. Microsoft Excel was used to organize the raw data on EDR experiments, and the SigmaPlot program was utilized to generate drug response curves. All drug response curves were as approximated as sigmoidal equations (characteristic for typical drug response curves) to fit the data. IC50 values were determined using the approximated sigmoidal curves and expressed as μM.

First: CC(=O)OCOC(=O)C=CSc1ccccc1 [3-(phenylthio)acryloyloxymethyl acetate]
Second: CC(=O)OCOC(=O)C=Cc1ccccc1 [cinnamoyloxymethyl acetate]
The IC50 of the first is 2.4-fold higher: 30 µM for the first, 12.5 µM for the second.

`CC(=O)OCOC(=O)CCCC1CCCCC1` [4-cyclohexanebutyroyloxymethyl acetate] and `CC(=O)OCOC(=O)CSCc1ccccc1` [S-benzylthioglycoloyloxymethyl acetate] are within 1.5-fold of each other in IC50: 23.2 µM for the first, 28.4 µM for the second.

`CC(=O)OCOC(=O)C=CC=Cc1ccccc1` [5-phenyl-2,4-pentadienoyloxymethyl acetate] and `CC(=O)OCOC(=O)CC=CC=Cc1ccccc1` [6-phenyl-3,5-hexadienoyloxymethyl acetate] are within 1.5-fold of each other in IC50: 20 µM for the first, 18 µM for the second.

First: CCCC(=O)O [butyric acid, reference compound]
Second: CC(=O)OCOC(=O)C#Cc1ccccc1 [phenylpropioloyloxymethyl acetate]
The IC50 of the first is higher: greater than 2000 µM for the first, 25 µM for the second. The second is the more potent here.

With `CC(/C=C/C(=O)NO)=C\[C@@H](C)C(=O)c1ccc(N(C)C)cc1` [trichostatin, reference compound] the IC50 was 0.005 µM.

From US6699902B2, “Acetyloxymethyl esters and methods for using the same” (Beacon Laboratories, Inc., priority 2000, dated 2004)
